Patent publication US20180193659A1, “PHOTODYNAMIC THERAPY LIGHT IRRADIATING DEVICE AND LIGHT IRRADIATING METHOD” (Public University Corporation Nagoya City University, priority 2015, published 2018)
Like-named read-outs stand apart in the source and are kept apart here.

Experiments:
[1] = test system: HaCaT cells (human skin keratinocyte cell line); conditions: 1 mM 5-ALA; for PDT effect (1 - cell survival rate): 0.4 J/cm^2
Protocol: After 4 hours, the plurality of plates except for one plate were each subjected to five kinds of single-wavelength irradiation and four kinds of multiple-wavelength irradiation (specifically, two-wavelength irradiation) at respective amounts of irradiation of 0.2 J/cm^2, 0.4 J/cm^2, 0.6 J/cm^2, 0.8 J/cm^2, 1.0 J/cm^2, and 1.2 J/cm^2. Specifically, in the five kinds of single-wavelength irradiation, irradiation with each of light having a wavelength of 405 nm, light having a wavelength of 505 nm, light having a wavelength of 545 nm, light having a wavelength of 570 nm, and light having a wavelength of 635 nm was performed. The four kinds of multiple-wavelength irradiation with light in which the light having the wavelength of 405 nm and the light having the wavelength of 505 nm were combined, light in which the light having the wavelength of 405 nm and the light having the wavelength of 545 nm were combined, light in which the light having the wavelength of 405 nm and the light having the wavelength of 570 nm were combined, and light in which the light having the wavelength of 405 nm and the light having the wavelength of 635 nm were combined were performed. In the single-wavelength irradiation and the multiple-wavelength irradiation, as a light source of the light having the wavelength of 405 nm, an LED element in which the energy of light from the light source was 11 mW/cm^2 (irradiation distance: 100 mm) was used. […]
Subsequently, in the plurality of plates that had been irradiated with light and the plate that had not been irradiated with light, cultivation was performed over 18 hours. The cell survival rate was measured by an MTT assay using an XTT cell proliferation assay kit.
On the basis of the results of cell survival rate at an amount of irradiation of 0.4 J/cm^2, a therapeutic effect by a photodynamic therapy (hereinafter also referred to as “PDT effect”) was calculated by the following expression (1).
Herein, the cell survival rate reference value is a value calculated by the following expression (2). […]

[2] = test system: HaCaT cells (human skin keratinocyte cell line); test: Experimental Example 2: cell survival rate of 5-ALA-treated HaCaT cells after 635 nm irradiation under pulse width modulation; format: cell-based; conditions: 1 mM 5-ALA, 12 J/cm^2, 125 kHz PWM, off time not more than 4 μs
Protocol: The irradiation was performed using a pulse width modulation control power supply (PWM power supply) with a frequency of 125 kHz capable of adjusting light using pulse width modulation at 256 modes as shown in FIG. 12. Specifically, in the condition (1), light irradiation was performed using pulse width modulation control in which the off time (t(off)) in pulse width modulation was 5.6 μs. In the condition (2), light irradiation was performed using pulse width modulation control in which the off time (t(off)) in pulse width modulation was 5.3 μs. In the condition (3), light irradiation was performed using pulse width modulation control in which the off time (t(off)) in pulse width modulation was 4.8 μs. In the condition (4), light irradiation was performed using pulse width modulation control in which the off time (t(off)) in pulse width modulation was 4.0 μs. In the condition (5), light irradiation was performed using pulse width modulation control in which the off time (t(off)) in pulse width modulation was 2.7 μs. In all the conditions (1) to (5), the pulse period (T) was 8 μs. In the condition (6), light irradiation in which the off time (t(off)) in pulse width modulation was 0 μs, that is, light irradiation that was continuous irradiation under the same condition as that in amplitude variable control was performed.

NCC(=O)CCC(=O)O [5-ALA, δ-aminolevulinic acid]
PDT effect, single-wavelength irradiation ([1]; 4 h, 405 nm compared with 505, 545, 570 and 635 nm): most excellent PDT effect | PDT effect (1 - cell survival rate) ([1]; 405 nm + 505 nm): excellent PDT effect is obtained | PDT effect (1 - cell survival rate) ([1]; 405 nm + any of 545, 570, 635 nm): sufficient PDT effect is not obtained | PDT effect under pulse width modulation versus continuous irradiation [2]: the same as that in continuous irradiation
